# Measurements taken from patent US20060040871A1, “Bacterial transforming agent” (priority 2003, published 2006).
# Read-outs that look alike come from different tables or passages of the source.
# Key:
# [1] = tested on: MRSA; assay type: cell-based, Staphylococcus aureus; details: agents not hydrolysed by staphylococcal β-lactamase
# [2] = tested on: MRSA; assay: MIC of methicillin for MRSA isolates grown with glycine or GBE (Table 1); assay type: cell-based, Staphylococcus aureus; details: for MIC of methicillin: GBE 0.001M (0.2%)
# [3] = tested on: MRSA; assay type: cell-based, Staphylococcus aureus; details: GBE 0.00075M [0.15%]
# Excerpt: Stored frozen plasma was pooled from five subjects.
# Human plasma may bind or otherwise inactivate foreign substances and good activity in plasma is indicative of good in vivo activity.
# [4] = tested on: vancomycin- and gentamicin-resistant Enterococcus faecium; assay: microbe, parasite or virus in culture; assay type: cell-based; details: for MIC of vancomycin: GBE 0.02M
# Excerpt: The agents of the present invention are not limited to the reversal of resistance in Staphylococcus. The test strains in Table 5 are patient-isolates of vancomycin- and gentamicin-resistant Enterococcus faecium. At the time of isolation, they were commonly resistant to all clinically useable antimicrobial agents.
# [5] = tested on: MRSA; assay: Screening on Isosensitest agar with incorporated BTA and 10 μg methicillin discs; assay type: cell-based, Staphylococcus aureus; details: VRE and MRSA
# Protocol: To find substances related to GBE that might have increased potency, various substances, including those with additional glycine moieties and benzylates, have been screened. Screening was carried out using Isosensitest agar (Oxoid, UK) into which various levels of potential BTAs were incorporated at levels between 0.01 and 1.0%. The agar with incorporated BTA was then used in the manner of a standard antibiotic sensitivity test using 10 μg methicillin discs. The test organism was inoculated onto the agar surface at a concentration suitable to achieve confluent growth after 18 hours incubation at 30° C. After incubation, zone diameters were compared with that achieved by the control plate (Isosensitest alone) for each test organism.
smiles,measurement,setting,value
"NCC(=O)OCc1ccccc1 [GBE, Glycine Benzyl Ester]",sensitivity of MRSA to other β-lactam agents in the presence of GBE,[1],sensitive to cephalosporins and other β-lactam agents
same,strains tested with complete transformation,"[2]; 0.02 M glycylbenzyl ester, said of Table 1",100%
same,MIC of methicillin,[2]; CD40 (EMRSA-1),2 µg/mL
same,MIC of methicillin,[2]; DS09 (EMRSA-1),2 µg/mL
same,MIC of methicillin,[2]; E15-97 (EMRSA-15),2 µg/mL
same,MIC of methicillin,[2]; E16-96 (EMRSA-16),2 µg/mL
same,MIC of methicillin,[2]; JF1-32 (EMRSA-1),2 µg/mL
same,MIC of methicillin,[2]; L265,2 µg/mL
same,MIC of methicillin,[2]; L266,2 µg/mL
same,MIC of methicillin,[2]; L267,2 µg/mL
same,MIC of methicillin,[2]; L268,2 µg/mL
same,MIC of methicillin,[2]; L269,1 µg/mL
same,MIC of methicillin,[2]; L270,1 µg/mL
same,MIC of methicillin,[2]; L271,2 µg/mL
same,MIC of methicillin,[2]; L272,1 µg/mL
same,MIC of methicillin,[2]; L273,1 µg/mL
same,MIC of methicillin,[2]; L274,2 µg/mL
same,MIC of methicillin,[2]; L275,2 µg/mL
same,MIC of methicillin,[2]; L276,2 µg/mL
same,MIC of methicillin,[2]; L277,2 µg/mL
same,MIC of methicillin,[2]; L278,4 µg/mL
same,MIC of methicillin,[2]; L279,2 µg/mL
same,MIC of methicillin,[2]; L280,2 µg/mL
same,MIC of methicillin,[2]; L281,2 µg/mL
same,MIC of methicillin,[2]; L282,2 µg/mL
same,MIC of methicillin,[2]; L283,2 µg/mL
same,MIC of methicillin,[2]; L284,2 µg/mL
same,MIC of methicillin,[2]; L285,2 µg/mL
same,MIC of methicillin,[2]; L286,2 µg/mL
same,MIC of methicillin,[2]; L287,2 µg/mL
same,MIC of methicillin,[2]; L288,2 µg/mL
same,MIC of methicillin,[2]; L289,2 µg/mL
same,MIC of methicillin,[2]; L290,2 µg/mL
same,MIC of methicillin,[2]; L291,2 µg/mL
same,MIC of methicillin,[2]; L292,2 µg/mL
same,MIC of methicillin,[2]; L293,2 µg/mL
same,MIC of methicillin,[2]; L294,2 µg/mL
same,MIC of methicillin,[2]; MC01 (EMRSA-1),2 µg/mL
same,MIC of methicillin,[2]; NCTC 12493,0.015 µg/mL
same,MIC of methicillin,[2]; PS3-32 (EMRSA-1),2 µg/mL
same,MIC of methicillin,[2]; SN31 (EMRSA-1),2 µg/mL
same,MIC of methicillin,[2]; ST11 (EMRSA-1),2 µg/mL
same,MIC of methicillin,[2]; SW2-32 (EMRSA-1),2 µg/mL
same,effect on sensitivity to methicillin compared with glycine,[2]; Table 1,increased sensitivity to methicillin to a much greater extent than glycine
same,MIC of methicillin,"[3]; 5518 (EMRSA-1), +1% human plasma",4 µg/mL
same,MIC of methicillin,"[3]; 5518 (EMRSA-1), no plasma",2 µg/mL
same,MIC of methicillin,"[3]; L277, +1% human plasma",8 µg/mL
same,MIC of methicillin,"[3]; L277, no plasma",4 µg/mL
same,MIC of methicillin,"[3]; L278, +1% human plasma",16 µg/mL
same,MIC of methicillin,"[3]; L278, no plasma",8 µg/mL
same,MIC of methicillin,"[3]; L279, +1% human plasma",16 µg/mL
same,MIC of methicillin,"[3]; L279, no plasma",4 µg/mL
same,MIC of methicillin,"[3]; L280, +1% human plasma",8 µg/mL
same,MIC of methicillin,"[3]; L280, no plasma",4 µg/mL
same,MIC of methicillin,"[3]; L281, +1% human plasma",8 µg/mL
same,MIC of methicillin,"[3]; L281, no plasma",4 µg/mL
same,MIC of methicillin,"[3]; L282, +1% human plasma",16 µg/mL
same,MIC of methicillin,"[3]; L282, no plasma",4 µg/mL
same,MIC of methicillin,"[3]; L283, +1% human plasma",16 µg/mL
same,MIC of methicillin,"[3]; L283, no plasma",4 µg/mL
same,MIC of methicillin,"[3]; L284, +1% human plasma",8 µg/mL
same,MIC of methicillin,"[3]; L284, no plasma",2 µg/mL
same,MIC of methicillin,"[3]; L285, +1% human plasma",16 µg/mL
same,MIC of methicillin,"[3]; L285, no plasma",4 µg/mL
same,MIC of methicillin,"[3]; L286, +1% human plasma",8 µg/mL
same,MIC of methicillin,"[3]; L286, no plasma",4 µg/mL
same,MIC of methicillin,"[3]; L287, +1% human plasma",16 µg/mL
same,MIC of methicillin,"[3]; L287, no plasma",4 µg/mL
same,MIC of methicillin,"[3]; L288, +1% human plasma",16 µg/mL
same,MIC of methicillin,"[3]; L288, no plasma",2 µg/mL
same,MIC of methicillin,"[3]; L289, +1% human plasma",16 µg/mL
same,MIC of methicillin,"[3]; L289, no plasma",4 µg/mL
same,MIC of methicillin,"[3]; L290, +1% human plasma",8 µg/mL
same,MIC of methicillin,"[3]; L290, no plasma",4 µg/mL
same,MIC of methicillin,"[3]; L291, +1% human plasma",16 µg/mL
same,MIC of methicillin,"[3]; L291, no plasma",4 µg/mL
same,MIC of methicillin,"[3]; L292, +1% human plasma",32 µg/mL
same,MIC of methicillin,"[3]; L292, no plasma",4 µg/mL
same,MIC of methicillin,"[3]; L293, +1% human plasma",8 µg/mL
same,MIC of methicillin,"[3]; L293, no plasma",2 µg/mL
same,MIC of methicillin,"[3]; L294, +1% human plasma",8 µg/mL
same,MIC of methicillin,"[3]; L294, no plasma",2 µg/mL
same,strains tested with complete transformation (target MIC of vancomycin 2 mg/l),"[4]; 0.02 M GBE, Table 5",100%
same,MIC of vancomycin,[4]; ATCC 29212,1 µg/mL
same,MIC of vancomycin,[4]; BBC,2 µg/mL
same,MIC of vancomycin,[4]; E254,2 µg/mL
same,MIC of vancomycin,[4]; E267,2 µg/mL
same,MIC of vancomycin,[4]; E271,2 µg/mL
same,MIC of vancomycin,[4]; E285,2 µg/mL
same,MIC of vancomycin,[4]; E297,2 µg/mL
same,MIC of vancomycin,[4]; GBC,2 µg/mL
same,MIC of vancomycin,[4]; S226,2 µg/mL
same,MIC of vancomycin,[4]; S227,2 µg/mL
same,MIC of vancomycin,[4]; S283,2 µg/mL
same,MIC of vancomycin,[4]; S302,2 µg/mL
same,MIC of vancomycin,[4]; S315,1 µg/mL
same,MIC of vancomycin,[4]; S317,2 µg/mL
same,MIC of vancomycin,[4]; S319,2 µg/mL
same,MIC of vancomycin,[4]; S333,2 µg/mL
same,MIC of vancomycin,[4]; S337,2 µg/mL
same,MIC of vancomycin,[4]; S393,2 µg/mL
same,MIC of vancomycin,[4]; S497,1 µg/mL
same,MIC of vancomycin,[4]; S556,1 µg/mL
same,MIC of vancomycin,[4]; WBC,2 µg/mL
same,activity against VRE and MRSA relative to glycylglycine benzyl ester,[5],greater activity
